Among the data in ChEMBL document CHEMBL3991601, “The target landscape of clinical kinase drugs” (Science, 2017) are Kd values, retold here.

The target of test [1] is T1, STE20-related kinase adapter protein alpha (Homo sapiens, UniProt Q7RTN6).
T1 sequence (Q7RTN6 whole entry): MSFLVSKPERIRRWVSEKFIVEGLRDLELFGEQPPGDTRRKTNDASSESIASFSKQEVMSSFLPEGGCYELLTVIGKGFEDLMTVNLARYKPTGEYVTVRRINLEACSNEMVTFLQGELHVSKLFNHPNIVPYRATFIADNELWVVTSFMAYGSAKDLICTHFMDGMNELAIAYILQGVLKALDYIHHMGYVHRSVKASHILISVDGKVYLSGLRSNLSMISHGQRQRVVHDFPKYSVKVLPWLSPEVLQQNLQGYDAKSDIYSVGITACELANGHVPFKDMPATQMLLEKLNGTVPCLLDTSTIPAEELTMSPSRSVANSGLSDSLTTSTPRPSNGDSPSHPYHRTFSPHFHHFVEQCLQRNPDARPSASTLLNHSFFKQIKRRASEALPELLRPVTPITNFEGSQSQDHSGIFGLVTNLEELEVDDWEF

The target of test [2] is T2, Acyl-CoA dehydrogenase family member 10 (Homo sapiens, UniProt Q6JQN1).
T2 sequence (Q6JQN1 whole entry): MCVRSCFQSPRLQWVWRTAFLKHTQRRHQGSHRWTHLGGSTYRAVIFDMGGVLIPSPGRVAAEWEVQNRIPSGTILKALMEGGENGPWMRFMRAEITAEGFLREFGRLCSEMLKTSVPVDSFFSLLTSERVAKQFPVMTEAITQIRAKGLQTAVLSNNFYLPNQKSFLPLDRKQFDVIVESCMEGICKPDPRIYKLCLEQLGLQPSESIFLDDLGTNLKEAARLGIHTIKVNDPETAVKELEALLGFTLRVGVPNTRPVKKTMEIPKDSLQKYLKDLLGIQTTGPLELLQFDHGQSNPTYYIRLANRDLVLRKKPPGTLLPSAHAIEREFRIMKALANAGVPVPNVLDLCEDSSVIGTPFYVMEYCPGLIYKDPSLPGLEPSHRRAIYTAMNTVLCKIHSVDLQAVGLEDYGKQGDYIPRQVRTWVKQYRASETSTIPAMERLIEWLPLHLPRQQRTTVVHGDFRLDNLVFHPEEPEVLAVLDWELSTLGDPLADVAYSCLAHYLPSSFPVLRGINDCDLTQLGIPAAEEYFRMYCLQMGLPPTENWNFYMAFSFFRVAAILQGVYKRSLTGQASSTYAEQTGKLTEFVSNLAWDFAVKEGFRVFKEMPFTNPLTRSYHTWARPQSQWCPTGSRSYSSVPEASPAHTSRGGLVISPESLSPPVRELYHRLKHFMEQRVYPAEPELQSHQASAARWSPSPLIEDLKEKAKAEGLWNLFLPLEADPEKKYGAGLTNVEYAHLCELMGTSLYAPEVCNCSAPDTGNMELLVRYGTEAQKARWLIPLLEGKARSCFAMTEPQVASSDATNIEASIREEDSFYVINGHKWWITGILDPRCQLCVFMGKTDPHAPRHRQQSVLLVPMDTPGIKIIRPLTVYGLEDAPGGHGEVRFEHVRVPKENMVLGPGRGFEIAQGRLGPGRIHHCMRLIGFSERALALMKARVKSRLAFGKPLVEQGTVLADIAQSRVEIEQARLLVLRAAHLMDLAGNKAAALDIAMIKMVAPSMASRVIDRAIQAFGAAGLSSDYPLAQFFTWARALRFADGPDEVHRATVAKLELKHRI

For test [3], the target named is Tyrosine-protein kinase BTK (Homo sapiens, UniProt Q06187).
Test [4] has as its target Cyclin-dependent kinase 4 (Homo sapiens, UniProt P11802).
The target in test [5] is T3, Serine/threonine-protein kinase ICK (Homo sapiens, UniProt Q9UPZ9).
T3 sequence (Q9UPZ9 whole entry): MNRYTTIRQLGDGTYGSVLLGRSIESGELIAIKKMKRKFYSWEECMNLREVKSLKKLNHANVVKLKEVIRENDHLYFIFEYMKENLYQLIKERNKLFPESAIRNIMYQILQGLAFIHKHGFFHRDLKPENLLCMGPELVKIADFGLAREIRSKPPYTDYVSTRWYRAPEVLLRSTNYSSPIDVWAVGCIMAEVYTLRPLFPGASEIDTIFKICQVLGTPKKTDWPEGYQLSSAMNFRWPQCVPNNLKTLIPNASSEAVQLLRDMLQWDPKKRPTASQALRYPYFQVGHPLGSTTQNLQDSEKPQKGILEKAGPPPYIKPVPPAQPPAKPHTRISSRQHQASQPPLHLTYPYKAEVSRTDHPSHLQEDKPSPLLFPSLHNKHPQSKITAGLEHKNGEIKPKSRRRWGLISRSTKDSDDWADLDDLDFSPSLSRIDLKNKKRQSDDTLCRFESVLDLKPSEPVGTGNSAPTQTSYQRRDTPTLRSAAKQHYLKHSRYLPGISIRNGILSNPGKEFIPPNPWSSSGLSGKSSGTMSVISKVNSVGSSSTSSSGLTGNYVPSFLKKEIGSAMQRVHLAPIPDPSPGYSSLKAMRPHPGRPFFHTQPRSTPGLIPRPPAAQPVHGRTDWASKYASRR

Test [6] concerns the target T4, Succinate--CoA ligase [ADP-forming] subunit beta, mitochondrial (Homo sapiens, UniProt Q9P2R7).
T4 sequence (Q9P2R7 whole entry): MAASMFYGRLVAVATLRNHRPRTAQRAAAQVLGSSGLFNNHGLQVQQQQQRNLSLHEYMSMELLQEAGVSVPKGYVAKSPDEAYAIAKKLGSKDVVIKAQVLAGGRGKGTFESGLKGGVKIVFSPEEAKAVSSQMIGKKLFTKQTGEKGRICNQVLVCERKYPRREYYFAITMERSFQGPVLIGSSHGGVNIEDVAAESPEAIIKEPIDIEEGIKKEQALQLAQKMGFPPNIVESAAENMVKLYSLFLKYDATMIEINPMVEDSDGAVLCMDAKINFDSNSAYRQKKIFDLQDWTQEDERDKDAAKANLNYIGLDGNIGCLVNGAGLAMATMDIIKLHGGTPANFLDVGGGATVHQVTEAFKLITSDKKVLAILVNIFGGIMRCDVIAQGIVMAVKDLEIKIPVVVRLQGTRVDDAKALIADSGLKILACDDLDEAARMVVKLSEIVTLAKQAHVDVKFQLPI

In test [7] the target is T5, Adenine phosphoribosyltransferase (Homo sapiens, UniProt P07741).
T5 sequence (P07741 whole entry): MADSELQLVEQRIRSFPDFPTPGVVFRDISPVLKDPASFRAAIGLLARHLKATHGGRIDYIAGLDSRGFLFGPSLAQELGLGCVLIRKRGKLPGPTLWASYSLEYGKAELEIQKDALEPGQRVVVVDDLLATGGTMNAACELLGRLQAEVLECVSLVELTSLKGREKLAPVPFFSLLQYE

The source made the active and inactive calls.
Further: in the data inactive means no Kd found up to 30 µM.

Tyrosine-protein kinase BTK, sequence (Q06187 whole entry): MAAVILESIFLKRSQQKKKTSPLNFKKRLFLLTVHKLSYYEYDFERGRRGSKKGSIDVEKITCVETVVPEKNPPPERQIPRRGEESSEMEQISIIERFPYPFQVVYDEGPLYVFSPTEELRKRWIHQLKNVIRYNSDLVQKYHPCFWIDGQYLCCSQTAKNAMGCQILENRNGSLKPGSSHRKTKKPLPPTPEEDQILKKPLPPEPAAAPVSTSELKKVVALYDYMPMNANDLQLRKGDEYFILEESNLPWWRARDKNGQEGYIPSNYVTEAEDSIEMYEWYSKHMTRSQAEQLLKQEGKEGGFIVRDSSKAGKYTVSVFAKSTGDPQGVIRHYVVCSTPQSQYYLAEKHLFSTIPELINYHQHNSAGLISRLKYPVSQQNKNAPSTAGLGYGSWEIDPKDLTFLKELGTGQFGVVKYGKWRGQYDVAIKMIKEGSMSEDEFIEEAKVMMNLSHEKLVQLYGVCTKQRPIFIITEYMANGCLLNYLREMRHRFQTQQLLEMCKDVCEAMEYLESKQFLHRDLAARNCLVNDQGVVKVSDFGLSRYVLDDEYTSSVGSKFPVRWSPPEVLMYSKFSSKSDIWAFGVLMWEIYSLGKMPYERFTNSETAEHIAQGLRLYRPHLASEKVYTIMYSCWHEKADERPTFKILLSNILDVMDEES
Cyclin-dependent kinase 4, sequence (P11802 whole entry): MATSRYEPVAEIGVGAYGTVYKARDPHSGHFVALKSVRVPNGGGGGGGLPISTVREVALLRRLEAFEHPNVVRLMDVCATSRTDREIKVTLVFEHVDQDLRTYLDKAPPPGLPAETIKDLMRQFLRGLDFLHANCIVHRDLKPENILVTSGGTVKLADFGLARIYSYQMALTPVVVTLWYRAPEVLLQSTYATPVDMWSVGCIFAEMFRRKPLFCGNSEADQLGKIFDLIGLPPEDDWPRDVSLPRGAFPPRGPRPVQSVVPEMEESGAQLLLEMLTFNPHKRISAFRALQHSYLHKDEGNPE

As for `COc1cc2ncnc(Nc3ccc(F)c(Cl)c3)c2cc1NC(=O)/C=C/CN1CCCCC1` [DACOMITINIB ANHYDROUS], the Kd in test [1], in test [2], in test [3], in test [4], in test [5] and in test [6] was > 30 µM (inactive) in each case.
For the compound `O=C(NOC[C@H](O)CO)c1ccc(F)c(F)c1Nc1ccc(I)cc1F` [MIRDAMETINIB], the Kd in test [1], in test [7], in test [2], in test [3], in test [4] and in test [5] was > 30 µM (inactive) each time.
On to `Cc1cc(Nc2nc(N[C@@H](C)c3ncc(F)cn3)ncc2Cl)n[nH]1` [AZD-1480], for which the Kd (as a rule, the equilibrium constant for the complex coming apart) in test [1] was 0.316 µM; in test [7], > 30 µM (inactive); in test [2], > 30 µM (inactive); in test [3] it was > 30 µM (inactive); in test [4] it was > 30 µM (inactive); in test [5] it was > 30 µM (inactive).
Take `O=C(Nc1ccc(OC(F)(F)F)cc1)c1sccc1NCc1ccnc2ccccc12` [OSI-930]: the Kd in test [1], in test [7], in test [2], in test [3], in test [4] and in test [5] was > 30 µM (inactive) in each case.
For `C=CCN(/C=C1/C(=O)O[C@H](COC)[C@@]2(C)C1=C(O)C(=O)C1=C2[C@H](OC(C)=O)C[C@]2(C)C(=O)CC[C@@H]12)CC=C` [SONOLISIB], the Kd in test [1], in test [2], in test [3], in test [4], in test [5] and in test [6] was > 30 µM (inactive) each time.
`CN1CCN(c2nc(C3=C(c4c[nH]c5ccccc45)C(=O)NC3=O)c3ccccc3n2)CC1` [SOTRASTAURIN]: the Kd in test [1] was > 30 µM (inactive); in test [2] it was > 30 µM (inactive); in test [3] it was > 30 µM (inactive); in test [4], > 30 µM (inactive); in test [5], 6.69 µM; in test [6], > 30 µM (inactive).
Regarding `CCN1CCN(Cc2ccc(Nc3ncc(F)c(-c4cc(F)c5nc(C)n(C(C)C)c5c4)n3)nc2)CC1` [ABEMACICLIB], the Kd in test [1] was > 30 µM (inactive); in test [3], > 30 µM (inactive); in test [5], 0.053 µM (active); in test [6], > 30 µM (inactive).
For the compound `Cc1c(Cn2c(C)nc3c(C(=O)O)cc(N4CCOCC4)cc32)cccc1C(F)(F)F` [GSK-2636771], the Kd in test [1], in test [2], in test [3], in test [4], in test [5] and in test [6] was > 30 µM (inactive) each time.
In the case of `Cc1cc(C(=O)Nc2cc(Oc3ccc4nc(NC(=O)C5CC5)cn4n3)ccc2C)n(C)n1` [TAK-593], the Kd in test [1], in test [2], in test [3], in test [4], in test [5] and in test [6] was > 30 µM (inactive) throughout.
On to `FC(F)(F)c1ccc(CNc2ccc(Cc3c[nH]c4ncc(Cl)cc34)cn2)cn1` [PEXIDARTINIB], for which the Kd in test [1], in test [2], in test [3], in test [4], in test [5] and in test [6] was > 30 µM (inactive) each time.
`Cc1cc(-c2cc(OC(=O)c3ccccc3)ccc2Cl)cc2nnc(Nc3ccc(OCCN4CCCC4)cc3)nc12` [TG100-801]: the Kd in test [1], in test [2], in test [3], in test [4] and in test [5] was > 30 µM (inactive) throughout.
Turning to `CC(C)(O)CC(=O)NCCn1ccc2ncnc(Nc3ccc(Oc4cccc(C(F)(F)F)c4)c(Cl)c3)c21` [TAK-285], the Kd in test [1], in test [3], in test [4], in test [5] and in test [6] was > 30 µM (inactive) in each case.
Consider `CNC(=O)c1cc(COc2nnc(Nc3ccc(Cl)cc3)c3ccoc23)ccn1` [TELATINIB], for which the Kd in test [1], in test [2], in test [3], in test [4], in test [5] and in test [6] was > 30 µM (inactive) in each case.
In the case of `CCc1nc(C(N)=O)c(Nc2ccc(N3CCC(N4CCN(C)CC4)CC3)c(OC)c2)nc1NC1CCOCC1` [GILTERITINIB], the Kd in test [1] was > 30 µM (inactive); in test [2], > 30 µM (inactive); in test [3], > 30 µM (inactive); in test [4], 1.95 µM (active); in test [5], > 30 µM (inactive); in test [6], > 30 µM (inactive).
`Cn1c(=O)n(-c2ccc(C(C)(C)C#N)cc2)c2c3cc(-c4cnc5ccccc5c4)ccc3ncc21` [DACTOLISIB]: the Kd in test [1], in test [7], in test [2], in test [4], in test [5] and in test [6] was > 30 µM (inactive) in each case.
